Converted amounts (≈) assume the structure as drawn.
Key:
Format in all cases: functional
Fusarium graminearum [1] = test: Antifungal activity against Fusarium graminearum infected in wheat plant assessed as fusarium head blight index at 180 mg/L (reference value: 53%)
Fusarium graminearum [2] = test: Synergistic antifungal activity against Fusarium graminearum infected in wheat plant assessed as contamination of wheat heads and kernels with deoxynivalenol at 360 mg/L in presence of 4 ml/L pyraclostrobin (reference value: 1.2 ppm)
Fusarium graminearum [3] = test: Synergistic antifungal activity against Fusarium graminearum B4-5A strain D in presence of fluconazole after 48 hrs by checkerboard method
Fusarium graminearum [4] = test: Synergistic antifungal activity against Fusarium graminearum B4-5A strain E assessed as fluconazole MIC after 48 hrs by microdilution assay
Candida albicans [5] = test: Antifungal activity against sensitive Candida albicans MYA-2876
Kluyveromyces marxianus = test: Antifungal activity against Candida pseudotropicalis YOGI
Fusarium graminearum [6] = test: Synergistic antifungal activity against Fusarium graminearum infected in wheat plant assessed as fusarium head blight incidence at 180 mg/L in presence of 0.438 L/ha prosaro 421 SC (reference value: 70%)
Fusarium graminearum [7] = test: Synergistic antifungal activity against Fusarium graminearum B4-5A strain E in presence of fluconazole after 48 hrs by microdilution assay
Fusarium graminearum [8] = test: Synergistic antifungal activity against Fusarium graminearum B4-5A strain D assessed as fluconazole MIC after 48 hrs by microdilution assay
Fusarium graminearum [9] = test: Synergistic antifungal activity against Fusarium graminearum B4-5A strain C in presence of fluconazole after 48 hrs by microdilution assay
Fusarium graminearum [10] = test: Synergistic antifungal activity against Fusarium graminearum B4-5A strain D in presence of fluconazole after 48 hrs by microdilution assay
Candida tropicalis = test: Antifungal activity against Candida tropicalis 95-41
Staphylococcus aureus = test: Antibacterial activity against Staphylococcus aureus ATCC 25923
Fusarium graminearum [11] = test: Synergistic antifungal activity against Fusarium graminearum infected in wheat plant assessed as fusarium head blight index at 180 mg/L in presence of 0.512 L/ha caramba (reference value: 53%)
Fusarium graminearum [12] = test: Synergistic antifungal activity against Fusarium graminearum B4-5A strain E in presence of fluconazole after 48 hrs by checkerboard method
Fusarium graminearum [13] = test: Synergistic antifungal activity against Fusarium graminearum B4-5A strain B in presence of fluconazole after 48 hrs by microdilution assay
Fusarium graminearum [14] = test: Synergistic antifungal activity against Fusarium graminearum infected in wheat plant assessed as spikelet curling at 360 mg/L in presence of 8 ml/L pyraclostrobin (reference value: 51.4%)
Candida albicans [15] = test: Antifungal activity against Candida albicans B-311
Cryptococcus neoformans [16] = test: Antifungal activity against Cryptococcus neoformans H99; details: var grubii H99
Fusarium graminearum [17] = test: Synergistic antifungal activity against Fusarium graminearum infected in wheat plant assessed as fusarium head blight incidence at 360 mg/L in presence of 0.438 L/ha prosaro 421 SC (reference value: 70%)
Fusarium graminearum [18] = test: Antifungal activity against Fusarium graminearum infected in wheat plant assessed as fusarium head blight incidence at 180 mg/L (reference value: 70%)
Fusarium graminearum [19] = test: Antifungal activity against Fusarium graminearum infected in wheat plant assessed as fusarium head blight incidence at 360 mg/L (reference value: 70%)
Fusarium oxysporum = test: Antifungal activity against Fusarium oxysporum
Cryptococcus neoformans [20] = test: Antifungal activity against Cryptococcus neoformans 90-26
Aspergillus flavus = test: Antifungal activity against Aspergillus flavus
Fusarium graminearum [21] = test: Synergistic antifungal activity against Fusarium graminearum infected in wheat plant assessed as fusarium head blight severity at 180 mg/L in presence of 0.512 L/ha caramba (reference value: 75%)
Candida albicans [22] = test: Antifungal activity against Candida albicans ATCC 10231
Fusarium graminearum [23] = test: Synergistic antifungal activity against Fusarium graminearum infected in wheat plant assessed as contamination of wheat heads and kernels with deoxynivalenol at 360 mg/L in presence of 2.8 ml/L proline 480 SC (reference value: 1.2 ppm)
Fusarium graminearum [24] = test: Antifungal activity against Fusarium graminearum B4-5A strain B after 48 hrs by microdilution assay
Fusarium graminearum [25] = test: Synergistic antifungal activity against Fusarium graminearum infected in wheat plant assessed as fusarium head blight index at 360 mg/L in presence of 0.512 L/ha caramba (reference value: 53%)
Candida albicans [26] = test: Antifungal activity against resistant Candida albicans ATCC 64124
Fusarium graminearum [27] = test: Antifungal activity against Fusarium graminearum infected in wheat plant assessed as fusarium head blight severity at 180 mg/L (reference value: 75%)
Clavispora lusitaniae = test: Antifungal activity against Candida lusitaniae 95-767
Diutina rugosa = test: Antifungal activity against Candida rugosa 95-967
Fusarium graminearum [28] = test: Antifungal activity against Fusarium graminearum B-4-5A
Candida parapsilosis = test: Antifungal activity against resistant Candida parapsilosis; details: Lodderomyces parapsilosis
Fusarium graminearum [29] = test: Synergistic antifungal activity against Fusarium graminearum infected in wheat plant assessed as fusarium head blight severity at 180 mg/L in presence of 0.438 L/ha prosaro 421 SC (reference value: 75%)
Cryptococcus neoformans [30] = test: Antifungal activity against Cryptococcus neoformans 94-2586
Fusarium graminearum [31] = test: Synergistic antifungal activity against Fusarium graminearum B4-5A strain C assessed as fluconazole MIC after 48 hrs by microdilution assay
Fusarium graminearum [32] = test: Antifungal activity against Fusarium graminearum B4-5A strain C after 48 hrs by microdilution assay
Fusarium graminearum [33] = test: Antifungal activity against Fusarium graminearum B4-5A strain D after 48 hrs by microdilution assay
Fusarium graminearum [34] = test: Synergistic antifungal activity against Fusarium graminearum B4-5A strain B in presence of fluconazole after 48 hrs by checkerboard method
Fusarium graminearum [35] = test: Synergistic antifungal activity against Fusarium graminearum infected in wheat plant assessed as fusarium head blight severity at 360 mg/L in presence of 0.512 L/ha caramba (reference value: 75%)
Fusarium graminearum [36] = test: Antifungal activity against Fusarium graminearum infected in wheat plant assessed as fusarium head blight index at 360 mg/L (reference value: 53%)
Fusarium graminearum [37] = test: Synergistic antifungal activity against Fusarium graminearum infected in wheat plant assessed as fusarium head blight index at 180 mg/L in presence of 0.438 L/ha prosaro 421 SC (reference value: 53%)
Micrococcus luteus = test: Antibacterial activity against Micrococcus luteus ATCC 10240
Escherichia coli = test: Antibacterial activity against Escherichia coli TG1
Fusarium graminearum [38] = test: Synergistic antifungal activity against Fusarium graminearum infected in wheat plant assessed as fusarium head blight incidence at 180 mg/L in presence of 0.512 L/ha caramba (reference value: 70%)
Fusarium graminearum [39] = test: Antifungal activity against Fusarium graminearum B4-5A strain E after 48 hrs by microdilution assay
Fusarium graminearum [40] = test: Synergistic antifungal activity against Fusarium graminearum B4-5A strain A in presence of fluconazole after 48 hrs by checkerboard method
Fusarium graminearum [41] = test: Synergistic antifungal activity against Fusarium graminearum B4-5A strain B assessed as fluconazole MIC after 48 hrs by microdilution assay

Which results are given for `CCCCCCCCS(=O)(=O)OC[C@H]1O[C@H](O[C@@H]2[C@@H](O)[C@H](O[C@H]3O[C@H](CN)[C@@H](O)[C@H](O)[C@H]3O)[C@@H](N)C[C@H]2N)[C@H](O)[C@@H](N)[C@@H]1O`?
Activity_index (Fusarium graminearum [1]): 9%; Activity (Fusarium graminearum [2]): 1.6 ppm; fractional inhibitory concentration index (FICI) (Fusarium graminearum [3]): 0.5; MIC (Fusarium graminearum [4]): 12.5 µg/mL; MIC (Candida albicans [5]): 15.6 µg/mL (≈ 23.6 µM); MIC (Kluyveromyces marxianus): 15.6 µg/mL (≈ 23.6 µM); Activity (Fusarium graminearum [6]): 11%; MIC (Fusarium graminearum [7]): 4 µg/mL; MIC (Fusarium graminearum [8]): 0.195 µg/mL; MIC (Fusarium graminearum [9]): 4 µg/mL; MIC (Fusarium graminearum [10]): 8 µg/mL; MIC (Candida tropicalis): 15.6 µg/mL (≈ 23.6 µM); MIC (Staphylococcus aureus): 250 µg/mL (≈ 378 µM); Activity_index (Fusarium graminearum [11]): 7%; fractional inhibitory concentration index (FICI) (Fusarium graminearum [12]): 0.7; MIC (Fusarium graminearum [13]): 4 µg/mL; Activity (Fusarium graminearum [14]): 1.5%; MIC (Candida albicans [15]): > 7.8 µg/mL; MIC (Cryptococcus neoformans [16]): 3.9 to 7.8 µg/mL (≈ 5.9 to 11.8 µM); Activity (Fusarium graminearum [17]): 10%; Activity (Fusarium graminearum [18]): 15%; Activity (Fusarium graminearum [19]): 14%; MIC (Fusarium oxysporum): 31.3 µg/mL (≈ 47.4 µM); MIC (Cryptococcus neoformans [20]): 3.9 to 7.8 µg/mL (≈ 5.9 to 11.8 µM); MIC (Aspergillus flavus): 300 µg/mL (≈ 454 µM); Activity (Fusarium graminearum [21]): 50%; MIC (Candida albicans [22]): 15.6 µg/mL (≈ 23.6 µM); Activity (Fusarium graminearum [23]): 0.3 ppm; MIC (Fusarium graminearum [24]): 16 µg/mL (≈ 24.2 µM); Activity_index (Fusarium graminearum [25]): 8%; MIC (Candida albicans [26]): 31.3 µg/mL (≈ 47.4 µM); Activity (Fusarium graminearum [27]): 60%; MIC (Clavispora lusitaniae): > 7.8 µg/mL; MIC (Diutina rugosa): 15.6 µg/mL (≈ 23.6 µM); MIC (Fusarium graminearum [28]): 7.8 µg/mL (≈ 11.8 µM); MIC (Candida parapsilosis): 15.6 to 31.3 µg/mL (≈ 23.6 to 47.4 µM); Activity (Fusarium graminearum [29]): 55%; MIC (Cryptococcus neoformans [30]): 3.9 to 7.8 µg/mL (≈ 5.9 to 11.8 µM); MIC (Fusarium graminearum [31]): 0.25 µg/mL; MIC (Fusarium graminearum [32]): 16 µg/mL (≈ 24.2 µM); MIC (Fusarium graminearum [33]): 16 µg/mL (≈ 24.2 µM); fractional inhibitory concentration index (FICI) (Fusarium graminearum [34]): 0.5; Activity (Fusarium graminearum [35]): 61%; Activity_index (Fusarium graminearum [36]): 8%; Activity_index (Fusarium graminearum [37]): 6%; MIC (Micrococcus luteus): 62.5 µg/mL (≈ 94.6 µM); MIC (Escherichia coli): 125 to 250 µg/mL (≈ 189 to 378 µM); Activity (Fusarium graminearum [38]): 15%; MIC (Fusarium graminearum [39]): 16 µg/mL (≈ 24.2 µM); fractional inhibitory concentration index (FICI) (Fusarium graminearum [40]): 0.37; MIC (Fusarium graminearum [41]): 6.25 µg/mL

From ChEMBL document CHEMBL4257529, “Antifungal amphiphilic kanamycins: new life for an old drug” (Medchemcomm, 2018)
